Entries after “also recorded” stand apart in the source; their conditions may differ. Like-named read-outs stand apart in the source and are kept apart here.
Key:
[1] = system: A/WSN/1933 (H1N1) virus; test: Cytopathic prevention assay in MDCK cells, H1N1; assay type: cell-based, influenza A/WSN/1933 (H1N1); details: for anti-influenza activity (in words): H1N1 virus
Experimental: The cytopathic prevention assays in Madin-Darby canine kidney (MDCK) cells were conducted to evaluate the anti-influenza activity. To our anticipation, the ZA-7-conjugates were potent inhibitors against human H1N1 virus (Table 2). The ZA-1-conjugates 9-12 also resumed anti-influenza activity in the cell-based assays. […] The anti-influenza activity could not be caused by caffeic esters alone. (Salomon, R. et al. Proc. Natl. Acad. Sci. U.S.A. 2007, 104, 12479)
The anti-flu activities of neuraminidase inhibitors were measured by the EC50 values that were the concentrations of NA inhibitor for 50% protection of the H1N1 CPE activities. Fifty μL diluted H1N1 at 100 TCID50 were mixed with equal volumes of NA inhibitors at varied concentrations. The mixtures were used to infect 100 μL of MDCK cells at 1×10^5 cells/mL in 96-wells. After 48 h incubation at 37° C. under 5.0% CO2, the cytopathic effects (CPE) were determined with CellTiter 96® AQueous Non-Radioactive Cell Proliferation Assay reagent as described above. Inhibitor EC50 value were determined by fitting the curve of percent CPE versus the concentrations of NA inhibitor using Graph Pad Prism 4.

[2] = system: mRNA encoding IL-6 in LPS-activated RAW264.7 cells; assay type: cell-based
[3] = system: mRNA encoding TNF-α in LPS-activated RAW264.7 cells; assay type: cell-based
[4] = target: neuraminidase of influenza A/WSN/1933 (H1N1) virus (Influenza A virus, UniProt P03470); test: biochemical; assay type: biochemical
Chain of neuraminidase of influenza A/WSN/1933 (H1N1) virus (P03470 whole entry, looked up): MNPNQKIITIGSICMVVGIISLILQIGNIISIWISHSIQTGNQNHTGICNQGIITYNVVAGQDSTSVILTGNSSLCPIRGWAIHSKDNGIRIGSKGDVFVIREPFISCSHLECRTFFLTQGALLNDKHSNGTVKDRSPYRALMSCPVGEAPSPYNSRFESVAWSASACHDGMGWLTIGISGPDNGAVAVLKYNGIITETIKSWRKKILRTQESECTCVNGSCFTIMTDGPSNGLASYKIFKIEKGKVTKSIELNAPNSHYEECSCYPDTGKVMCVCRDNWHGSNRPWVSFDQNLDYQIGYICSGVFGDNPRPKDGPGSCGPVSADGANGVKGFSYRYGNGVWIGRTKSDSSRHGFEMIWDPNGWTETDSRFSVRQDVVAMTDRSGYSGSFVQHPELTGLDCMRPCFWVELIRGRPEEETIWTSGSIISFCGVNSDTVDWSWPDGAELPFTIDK

[5] = humans; cited from earlier work
[6] = system: recombinant NIBRG-14 (A/Viet Nam/1194/2004) H5N1 virus; test: microbe, parasite or virus in culture; assay type: cell-based, avian H5N1 influenza virus; details: for EC50: Influenza A virus, H5N1, read-out: EC50 against avian H5N1 virus
[7] = system: NIBRG-14 (A/VietNam/1194/2004) H5N1; assay type: in vivo, BALB/c mice; details: for survival of H5N1 infected mice (in words): 12 μmol/kg/day intranasal, 10 LD50 NIBRG-14, FIG. 17A/17B
[8] = system: influenza A/Cal/07/2009 H1N1; design: species or system BALB/c mice; details: mouse, in vivo
[9] = system: IL-6; design: species or system mice; details: mouse, in vivo
[10] = system: IFN-γ; design: species or system mice; details: mouse, in vivo
[11] = Sprague Dawley, rat
[12] = Influenza A virus, MDCK, A/WSN/1933 (H1N1) virus, table data are ranges or single assay results, read-out: EC50 (nM), anti-influenza activity
[13] = A/WSN/1933 (H1N1) virus, table data are ranges or single assay results, read-out: EC50 (nM), anti-influenza activity

With `O=C(O)c1ccc2ccccc2c1O` [HNAP, 1-hydroxy-2-naphthoic acid, reference compound] the EC50 [1, 12] was > 100000 nM.
For “3,4-(methylenedioxy)cinnamic acid [MCA, reference compound]”, the “mRNA encoding IL-6” value [2] was “dose-dependent decreases”, the “mRNA encoding TNF-α” value [3] was “dose-dependent decreases” and the “NA inhibitory activity (in words)” value [4] was “did not exhibit any NA inhibitory activity”. For the same compound, the IC50 ([4]; read-out: IC50 (nM), influenza neuraminidase inhibition) was > 100000 nM and the EC50 [1, 13] was > 100000 nM.
In the case of `Nc1ccc(O)c(C(=O)O)c1` [ME, mesalazine, reference compound], the “mRNA encoding IL-6” value [2] is reported as “dose-dependent decreases”, the “mRNA encoding TNF-α” value [3] is reported as “dose-dependent decreases” and the “NA inhibitory activity (in words)” value [4] is reported as “did not exhibit any NA inhibitory activity”. For the same compound, the EC50 [1, 12] was > 100000 nM.
For `CC(=O)N[C@H]1[C@H]([C@H](O)[C@H](O)CO)OC(C(=O)O)=C[C@@H]1N=C(N)N` [ZA, zanamivir, reference compound], the bioavailability [5] is given as ~5%, the EC50 [6] is given as 680 nM and the “survival of H5N1 infected mice (in words)” value [7] is given as “did not improve the survival rate”. The EC50 [1, 13] was 3.5 to 20.2 nM, the EC50 ([1]; read-out: EC50 (nM), anti-influenza activity, A/WSN/1933 (H1N1) virus, table data are ranges or single assay results) was 14 nM and the “survival at day 14 / protection from virus-induced death” value [8] was 10%. The “survival of H1N1 infected mice (in words)” value [8] was “all the mice died at day 12”.
For `CC(=O)NC1C(NC(=N)N)C=C(C(=O)OCCCOC(=O)c2cc(N)ccc2O)OC1C(O)C(O)CO` (centres unmarked) [ZA-1-ME (11)], the IC50 [4] was 996 nM and the EC50 [1, 12] was 16 nM.
Compound `CC(=O)NC1C(NC(=N)N)C=C(C(=O)O)OC1C(OC(=O)NCCCOC(=O)C=Cc1ccc2c(c1)OCO2)C(O)CO` (centres unmarked) [ZA-7-MCA (2)] has an IC50 [4] of 5.4 to 7.9 nM.
In the case of `O=C(/C=C/c1ccc(O)c(O)c1)O[C@@H]1C[C@](O)(C(=O)O)C[C@@H](O)[C@H]1O` [chlorogenic acid, reference compound], the “anti-influenza activity (in words)” value [1] is reported as “inactive”.
In the case of `CC(C)(C)OC(=O)NCCCOC(=O)C=Cc1ccc(O)c(O)c1` [3-(tert-butoxyamido)propyl caffeate, reference compound], the “anti-influenza activity (in words)” value [1] is reported as “inactive”.
For `CC(=O)NC1C(NC(=N)N)C=C(C(=O)O)OC1C(OC(=O)NCCCO)C(O)CO` (centres unmarked) [ZA-7-HP (6), 5-Acetylamino-6-[2,3-dihydroxy-1-(3-hydroxypropylcarbamoyloxy)propyl]-4-guanidino-5,6-dihydro-4H-pyran-2-carboxylic acid], the EC50 [6] was 820 nM and the IC50 [4] was 11.7 to 19.8 nM.
In the case of `CC(=O)NC1C(NC(=N)NC(=O)C(C)c2ccc(CC(C)C)cc2)C=C(C(=O)O)OC1C(O)C(O)CO` (centres unmarked) [ZA-G-Ibu (47)], the IC50 [4] is reported as 44 to 81 nM and the EC50 [1, 12] is reported as 18 to 20 nM.
`CC(=O)NC1C(N=C(N)N)C=C(C(=O)OCCCOC(=O)c2ccc3ccccc3c2O)OC1C(O)C(O)CO` (centres unmarked) [ZA-1-HNAP (12)] showed an IC50 [4] of 590 nM and an EC50 [1, 12] of 48 nM.
With `CC(=O)NC1C(NC(=N)N)C=C(C(=O)O)OC1C(OC(=O)NCCCNC(=O)C=Cc1ccc(O)c(O)c1)C(O)CO` (centres unmarked) [ZA-7-CA-amide (7)] the “survival rate of H5N1 infected mice (in words)” value ([7]; 1.2 μmol/kg/day intranasal, FIG. 17B) was “improved survival rate”, the “survival of H5N1 infected mice (in words)” value [7] was “greater potency” and the IC50 [4] was 41.3 to 60.3 nM. The EC50 [1, 13] was 5.9 nM, the EC50 [1, 12] was 5.1 nM and the “survival at day 14” value [8] was 50%. The “survival at day 14 / protection from virus-induced death” value [8] was 100% and the “survival rate of H1N1 infected mice (in words)” value [8] was “did not improve the survival rate”.
With `CC(=O)NC1C(NC(=N)N)C=C(C(=O)O)OC1C(OC(=O)NCCCOC(=O)c1ccc(O)c(O)c1)C(O)CO` (centres unmarked) [ZA-7-DHBA (5)] the IC50 [4] was 2.9 nM and the EC50 [1, 12] was 53 nM.
For `O=C(/C=C/c1ccc(O)c(O)c1)OCCCO` [3-hydroxypropyl caffeate, reference compound], the “anti-influenza activity (in words)” value [1] was “inactive”.
For `CC(=O)NC1C(NC(=N)N)C=C(C(=O)OCCCOC(=O)C=Cc2ccc3c(c2)OCO3)OC1C(O)C(O)CO` (centres unmarked) [ZA-1-MCA (10)], the IC50 [4] was 3990 nM and the EC50 [1, 12] was 28 nM.
With `CC(=O)NC1C(NC(=N)N)C=C(C(=O)O)OC1C(OC(=O)NCCCOC(=O)c1cc(N)ccc1O)C(O)CO` (centres unmarked) [ZA-7-ME (3)] the “mRNA encoding IL-6” value [2] was “dose-dependent decreases”, the EC50 [6] was 430 nM and the “survival of H5N1 infected mice (in words)” value [7] was “did not provide better protection effect than ZA”. The “level of IL-6 in serum” value [9] was “lower”, the “mRNA encoding TNF-α” value [3] was “dose-dependent decreases” and the “level of IFN-γ in serum” value [10] was “lower”. The IC50 [4] was 8.6 to 56.3 nM and the “protection of H1N1 virus infected mice” value [8] was “greater protection than ZA, CA or ME; also recorded: good activity”.
With `O=C(O)/C=C/c1ccc(O)c(O)c1` [CA, caffeic acid, reference compound] the “mRNA encoding IL-6” value [2] was “dose-dependent decreases”, the “mRNA encoding TNF-α” value [3] was “dose-dependent decreases” and the “NA inhibitory activity (in words)” value [4] was “did not exhibit any NA inhibitory activity”. For the same compound, the EC50 [1, 12] was > 100000 nM and the “survival of H1N1 infected mice (in words)” value [8] was “all the mice died at day 12”.
In the case of `CC(=O)NC1C(NC(=N)N)C=C(C(=O)O)OC1C(OC(=O)NCCCOC(=O)c1ccc2ccccc2c1O)C(O)CO` (centres unmarked) [ZA-7-HNAP (4)], the IC50 [4] is reported as 0.7 to 3.6 nM and the EC50 [1, 12] is reported as 50 to 168 nM.
With `CC(=O)NC1C(NC(=N)N)C=C(C(=O)O)OC1C(OC(=O)NCCCOC(=O)C=Cc1ccc(O)c(O)c1)C(O)CO` (centres unmarked) [ZA-7-CA (1)] the “mRNA encoding IL-6” value [2] was “dose-dependent decreases”, the “potency relative to zanamivir against H5N1” value [6] was “about 13 fold” and the EC50 [6] was 50 nM. The “survival of H5N1 infected mice (in words)” value [7] was “all survived”, the “level of IL-6 in serum” value [9] was “lower” and the “mRNA encoding TNF-α” value [3] was “dose-dependent decreases”. The “level of IFN-γ in serum” value [10] was “lower”, the IC50 [4] was 2.9 to 7.4 nM and the EC50 [1, 12] was 1.4 to 10.6 nM. The “stability / enzymatic cleavage in plasma” value [11] was “released a degradation product ZA-7-HP (6)”, the “protection of H1N1 virus infected mice” value [8] was “greater protection than ZA, CA or ME” and the “protection of mice from influenza virus infection” value [8] was “did not show significant protection”. For the same compound, the “survival of H1N1 infected mice (in words)” value [8] was “all the mice died at day 12 except for those treated with conjugate 1; also recorded: all survived at day 14” and the “survival rate at day 14” value [8] was 40%.
In the case of `CC(=O)NC1C(NC(=N)N)C=C(C(=O)OCCCOC(=O)C=Cc2ccc(O)c(O)c2)OC1C(O)C(O)CO` (centres unmarked) [ZA-1-CA (9)], the IC50 [4] is reported as 2850 nM and the EC50 [1, 12] is reported as 25 nM.
For `CC(=O)NC1C(NC(=N)N)C=C(C(=O)O)OC1C(OC(=O)NCCCNC(=O)c1ccc2ccccc2c1O)C(O)CO` (centres unmarked) [ZA-7-HNAP-amide (8)], the IC50 [4] was 3.1 nM and the EC50 [1, 12] was 6.6 nM.

Source: patent US10130714B2 (priority 2012, dated 2018)
